Like-named read-outs stand apart in the source and are kept apart here.
Experiments:
Assay type in all cases: cell-based
alpha2A receptor = biological target: T1, alpha2A receptor (Homo sapiens, UniProt P08913); assay: Receptor Selection and Amplification Technology (RSAT) assay, Alpha 2A; details: for Alpha 2A IA (intrinsic activity): ratio of maximal effect to that of standard full agonist brimonidine (UK14304)
T1 construct: expressed in transfected cells; host or cells: NIH-3T3 cells
T1 sequence (P08913 1-465): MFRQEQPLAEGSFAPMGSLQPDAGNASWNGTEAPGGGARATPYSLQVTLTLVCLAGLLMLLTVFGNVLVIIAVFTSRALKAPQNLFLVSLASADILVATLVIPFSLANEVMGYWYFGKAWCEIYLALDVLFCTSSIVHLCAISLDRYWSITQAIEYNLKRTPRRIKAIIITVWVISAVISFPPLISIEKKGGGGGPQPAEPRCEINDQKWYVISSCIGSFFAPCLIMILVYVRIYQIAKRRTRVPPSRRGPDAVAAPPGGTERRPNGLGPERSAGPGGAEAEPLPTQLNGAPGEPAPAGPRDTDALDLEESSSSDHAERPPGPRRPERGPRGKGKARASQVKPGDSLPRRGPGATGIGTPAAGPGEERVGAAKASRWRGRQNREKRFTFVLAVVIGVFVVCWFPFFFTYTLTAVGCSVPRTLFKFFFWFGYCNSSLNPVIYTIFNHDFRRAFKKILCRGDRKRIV
Procedure: (§1) Receptor Selection and Amplification Technology (RSAT) Assay
(§2) The RSAT assay measures a receptor-mediated loss of contact inhibition that results in selective proliferation of receptor-containing cells in a mixed population of confluent cells. The increase in cell number is assessed with an appropriate transfected marker gene such as β-galactosidase, the activity of which can be easily measured in a 96-well format. Receptors that activate the G protein, Gq, elicit this response. Alpha2 receptors, which normally couple to Gi, activate the RSAT response when coexpressed with a hybrid Gq protein that has a Gi receptor recognition domain, called Gq/i5.
(§3) NIH-3T3 cells are plated at a density of 2×10^6 cells in 15 cm dishes and maintained in Dulbecco's modified Eagle's medium supplemented with 10% calf serum. One day later, cells are cotransfected by calcium phosphate precipitation with mammalian expression plasmids encoding p-SV-β-galactosidase (5-10 μg), receptor (1-2 μg) and G protein (1-2 μg). 40 μg salmon sperm DNA may also be included in the transfection mixture. […] Cells are thawed and 100 μl added to 100 μl aliquots of various concentrations of drugs in triplicate in 96-well dishes. Incubations continue 72-96 hr at 37° C. After washing with phosphate-buffered saline, β-galactosidase enzyme activity is determined by adding 200 μl of the chromogenic substrate (consisting of 3.5 mM o-nitrophenyl-β-D-galactopyranoside and 0.5% nonidet P-40 in phosphate buffered saline), incubating overnight at 30° C. and measuring optical density at 420 nm. The absorbance is a measure of enzyme activity, which depends on cell number and reflects a receptor-mediated cell proliferation. The efficacy or intrinsic activity is calculated as a ratio of the maximal effect of the drug to the maximal effect of a standard full agonist for each receptor subtype. Brimonidine, also called UK14304, the chemical structure of which is shown below, is used as the standard agonist for the alpha2A, alpha2B and alpha2C receptors. The EC50 is the concentration at which the drug effect is half of its maximal effect.
(§4) EC50 values are nanomolar. NA stands for “not active” at concentrations less than 10 micromolar. IA stands for “intrinsic activity.”

alpha2B receptor = biological target: T2, alpha2B receptor (Homo sapiens, UniProt P18089); assay: Receptor Selection and Amplification Technology (RSAT) assay, Alpha 2B; details: for EC50: transfected NIH-3T3 cells with Gq/i5, not active = at concentrations less than 10 micromolar; for Alpha 2B IA (intrinsic activity): ratio of maximal effect to that of standard full agonist brimonidine (UK14304)
T2 construct: expressed in transfected cells; host or cells: NIH-3T3 cells
T2 sequence (P18089 1-450): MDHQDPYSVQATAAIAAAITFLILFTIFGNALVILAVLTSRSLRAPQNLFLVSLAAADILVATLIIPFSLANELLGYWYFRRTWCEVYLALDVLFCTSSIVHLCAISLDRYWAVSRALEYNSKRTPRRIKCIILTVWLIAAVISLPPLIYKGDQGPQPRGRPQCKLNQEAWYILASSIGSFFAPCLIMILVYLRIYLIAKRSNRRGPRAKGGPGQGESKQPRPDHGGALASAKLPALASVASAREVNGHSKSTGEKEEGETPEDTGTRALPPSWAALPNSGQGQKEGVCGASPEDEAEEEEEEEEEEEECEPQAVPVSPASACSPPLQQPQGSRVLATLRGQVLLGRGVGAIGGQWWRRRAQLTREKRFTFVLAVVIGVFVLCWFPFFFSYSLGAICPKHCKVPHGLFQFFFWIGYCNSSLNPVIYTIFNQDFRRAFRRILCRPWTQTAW
Procedure: as §1, §2
NIH-3T3 cells are plated at a density of 2×10^6 cells in 15 cm dishes and maintained in Dulbecco's modified Eagle's medium supplemented with 10% calf serum. One day later, cells are cotransfected by calcium phosphate precipitation with mammalian expression plasmids encoding p-SV-β-galactosidase (5-10 μg), receptor (1-2 μg) and G protein (1-2 μg). 40 μg salmon sperm DNA may also be included in the transfection mixture. Fresh media is added on the following day and 1-2 days later, cells are harvested and frozen in 50 assay aliquots. Cells are thawed and 100 μl added to 100 μl aliquots of various concentrations of drugs in triplicate in 96-well dishes. Incubations continue 72-96 hr at 37° C. After washing with phosphate-buffered saline, β-galactosidase enzyme activity is determined by adding 200 μl of the chromogenic substrate (consisting of 3.5 mM o-nitrophenyl-β-D-galactopyranoside and 0.5% nonidet P-40 in phosphate buffered saline), incubating overnight at 30° C. and measuring optical density at 420 nm. The absorbance is a measure of enzyme activity, which depends on cell number and reflects a receptor-mediated cell proliferation. The efficacy or intrinsic activity is calculated as a ratio of the maximal effect of the drug to the maximal effect of a standard full agonist for each receptor subtype. Brimonidine, also called UK14304, the chemical structure of which is shown below, is used as the standard agonist for the alpha2A, alpha2B and alpha2C receptors. The EC50 is the concentration at which the drug effect is half of its maximal effect.
The results of the RSAT assay with several exemplary compounds of the invention are disclosed in Table 1 above together with the chemical formulas of these exemplary compounds. EC50 values are nanomolar. NA stands for “not active” at concentrations less than 10 micromolar. IA stands for “intrinsic activity.”

alpha2C receptor = biological target: T3, alpha2C receptor (Homo sapiens, UniProt P18825); assay: Receptor Selection and Amplification Technology (RSAT) assay, Alpha 2C; details: for Alpha 2C IA (intrinsic activity): ratio of maximal effect to that of standard full agonist brimonidine (UK14304)
T3 construct: expressed in transfected cells; host or cells: NIH-3T3 cells
T3 sequence (P18825 1-462): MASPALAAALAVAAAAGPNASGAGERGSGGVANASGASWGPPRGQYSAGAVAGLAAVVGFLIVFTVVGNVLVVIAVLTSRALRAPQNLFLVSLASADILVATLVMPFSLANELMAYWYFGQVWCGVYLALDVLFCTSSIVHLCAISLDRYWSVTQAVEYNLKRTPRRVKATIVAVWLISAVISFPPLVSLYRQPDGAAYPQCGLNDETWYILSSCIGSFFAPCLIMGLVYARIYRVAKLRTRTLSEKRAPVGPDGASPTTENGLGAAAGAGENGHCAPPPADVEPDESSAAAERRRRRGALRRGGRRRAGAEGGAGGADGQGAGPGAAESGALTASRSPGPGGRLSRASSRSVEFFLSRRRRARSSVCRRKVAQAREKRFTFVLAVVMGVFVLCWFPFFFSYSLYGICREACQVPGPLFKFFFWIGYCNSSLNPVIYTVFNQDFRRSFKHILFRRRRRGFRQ
Procedure: as §1, §2, §3, §4

[1] = RSAT, transfected NIH-3T3 cells with Gq/i5, not active = at concentrations less than 10 micromolar
[2] = RSAT, transfected NIH-3T3 cells with Gq/i5, not active = at concentrations less than 10 micromolar, read-out: Alpha 2C EC50

| SMILES | Alpha 2A EC50 (alpha2A receptor; [1]) | EC50 (alpha2B receptor; RSAT, read-out: Alpha 2B EC50) [µM] | Alpha 2B IA (intrinsic activity) (alpha2B receptor) | Alpha 2C EC50 (alpha2C receptor; [1]) | EC50 (alpha2A receptor; RSAT, transfected NIH-3T3 cells with Gq/i5, not active = at concentrations less than 10 micromolar, read-out: Alpha 2A EC50) [µM] | Alpha 2A IA (intrinsic activity) (alpha2A receptor) | EC50 (alpha2C receptor; [2]) [µM] | Alpha 2C IA (intrinsic activity) (alpha2C receptor) | EC50 (alpha2B receptor; Alpha 2B EC50, RSAT) [µM] | EC50 (alpha2C receptor) [µM] | EC50 (alpha2A receptor) [µM] |
| --- | --- | --- | --- | --- | --- | --- | --- | --- | --- | --- | --- |
| O=C(NCCF)NC(Cc1ccccc1Cl)c1ccccc1 (stereo not drawn) | not active | 0.606 | 0.63 | not active | – | – | – | – | – | – | – |
| O=C(NCCF)NC(Cc1ccccc1)c1ccccc1F (stereo not drawn) | – | 0.103 | 0.79 | – | 2.14 | 0.35 | 0.101 | 0.31 | – | – | – |
| O=C(NCCF)NC(Cc1ccccc1)c1ccc(F)cc1 (stereo not drawn) | not active | 0.299 | 0.71 | not active | – | – | – | – | – | – | – |
| O=C(NCCF)NC(Cc1ccccc1)c1ccccc1 (stereo not drawn) [1-(1,2-diphenyl-ethyl)-3-(2-fluoro-ethyl)-urea] | not active | – | 0.96 | – | – | – | – | 0.32 | 0.0338 | 0.345 | – |
| O=C(NCCF)NC(Cc1ccccc1)C1CCCCC1 (stereo not drawn) [1-(1-cyclohexyl-2-phenylethyl)-3-(2-fluoroethyl)urea] | not active | 0.64 | 0.33 | not active | – | – | – | – | – | – | – |
| O=C(NCCF)NC(Cc1ccccc1)c1ccco1 (stereo not drawn) [1-(2-fluoro-ethyl)-3-(1-furan-2-yl-2-phenyl-ethyl)-urea] | not active | 0.513 | 0.77 | not active | – | – | – | – | – | – | – |
| Cc1cccc(C(Cc2ccncc2)NC(=O)NCCF)c1 (stereo not drawn) [1-(2-fluoro-ethyl)-3-(2-pyridin-4-yl-1-m-tolyl-ethyl)-urea] | – | – | 1.1 | not active | – | 0.44 | – | – | 0.0377 | – | 0.341 |

Further compounds by falling EC50 (alpha2B receptor; RSAT, read-out: Alpha 2B EC50), results first:

| Alpha 2A EC50 (alpha2A receptor; [1]) | EC50 (alpha2B receptor; RSAT, read-out: Alpha 2B EC50) [µM] | Alpha 2B IA (intrinsic activity) (alpha2B receptor) | Alpha 2C EC50 (alpha2C receptor; [1]) | SMILES | EC50 (alpha2A receptor; RSAT, transfected NIH-3T3 cells with Gq/i5, not active = at concentrations less than 10 micromolar, read-out: Alpha 2A EC50) [µM] | Alpha 2A IA (intrinsic activity) (alpha2A receptor) | EC50 (alpha2C receptor; [2]) [µM] | Alpha 2C IA (intrinsic activity) (alpha2C receptor) | EC50 (alpha2B receptor; Alpha 2B EC50, RSAT) [µM] | EC50 (alpha2C receptor) [µM] | EC50 (alpha2A receptor) [µM] |
| --- | --- | --- | --- | --- | --- | --- | --- | --- | --- | --- | --- |
| not active | 0.378 | 0.6 | not active | O=C(NCCF)NC(Cc1ccccc1)C1CCCC1 (stereo not drawn) [1-(1-cyclopentyl-2-phenylethyl)-3-(2-fluoroethyl)urea] | – | – | – | – | – | – | – |
| not active | 0.177 | 0.55 | not active | O=C(NCCF)NC(Cc1ccccc1)c1ccc(Cl)cc1 (stereo not drawn) | – | – | – | – | – | – | – |
| not active | 0.146 | 0.82 | not active | O=C(NCCF)NC(Cc1ccccc1)c1ccc(O)cc1 (stereo not drawn) | – | – | – | – | – | – | – |
| not active | 0.135 | 0.87 | not active | Cc1cccc(C(Cc2ccccn2)NC(=O)NCCF)c1 (stereo not drawn) [1-(2-fluoro-ethyl)-3-(2-pyridin-2-yl-1-m-tolyl-ethyl)-urea] | – | – | – | – | – | – | – |
| not active | 0.0634 | 1.0 | not active | Cc1cccc(C(Cc2ccsc2)NC(=O)NCCF)c1 (stereo not drawn) [1-(2-Fluoro-ethyl)-3-(2-thiophen-3-yl-1-m-tolyl-ethyl)-urea] | – | – | – | – | – | – | – |
| not active | 0.0532 | 0.95 | not active | Cc1cccc(C(Cc2cccnc2)NC(=O)NCCF)c1 (stereo not drawn) [1-(2-fluoro-ethyl)-3-(2-pyridin-3-yl-1-m-tolyl-ethyl)-urea] | – | – | – | – | – | – | – |
| not active | 0.0429 | 0.88 | not active | Cc1cccc(C(Cc2ccc(F)cc2)NC(=O)NCCF)c1 (stereo not drawn) | – | – | – | – | – | – | – |
| not active | 0.0268 | 0.94 | – | Cc1ccccc1CC(NC(=O)NCCF)c1cccc(Cl)c1 (stereo not drawn) | – | – | 0.787 | 0.38 | – | – | – |
| not active | 0.0138 | 1.02 | not active | Cc1cccc(C(Cc2ccccc2F)NC(=O)NCCF)c1 (stereo not drawn) | – | – | – | – | – | – | – |

— patent US7709507B2 (Allergan, Inc., priority 2006, dated 2010)
